Source: patent EP4691482A1, “LONG-ACTING CALCITONIN ANALOG” (Chengdu Aoda Biotechnology Co., Ltd., priority 2023, dated 2024)

What was measured:
in vivo = experiment: in vivo; parameters: species or system Macaca fascicularis; conditions: cynomolgus monkey, sc, 0.1 mg/kg
Procedure: Macaca fascicularis were used as experimental animals. A subcutaneous administration was performed at a dose of 0.1 mg/kg. Venous blood samples were collected before administration (0 h) and at 1 h, 2 h, 3 h, 4 h, 8 h, 12 h, 18 h, 24 h, 48 h, 96 h, 144 h, and 168 h post-administration. Plasma samples were separated by centrifugation. The plasma concentration of the compound in the plasma samples was determined using liquid chromatography-mass spectrometry.

[1] = target: T1, calcitonin receptors (CTR) (Homo sapiens, UniProt P30988); experiment: cAMP determination (HTRF, cAMP Dynamic 2 Kit) in cAMP Hunter HEK293-CT-R Gs cell line; assay type: cell-based; conditions: relative to Salmon Calcitonin = 100.0; HEK293 CT-R cAMP
T1 construct: expressed in transfected cells; host or cells: cAMP Hunter HEK293-CT-R Gs cell line (HEK293, stably transfected)
T1 sequence (P30988 25-474): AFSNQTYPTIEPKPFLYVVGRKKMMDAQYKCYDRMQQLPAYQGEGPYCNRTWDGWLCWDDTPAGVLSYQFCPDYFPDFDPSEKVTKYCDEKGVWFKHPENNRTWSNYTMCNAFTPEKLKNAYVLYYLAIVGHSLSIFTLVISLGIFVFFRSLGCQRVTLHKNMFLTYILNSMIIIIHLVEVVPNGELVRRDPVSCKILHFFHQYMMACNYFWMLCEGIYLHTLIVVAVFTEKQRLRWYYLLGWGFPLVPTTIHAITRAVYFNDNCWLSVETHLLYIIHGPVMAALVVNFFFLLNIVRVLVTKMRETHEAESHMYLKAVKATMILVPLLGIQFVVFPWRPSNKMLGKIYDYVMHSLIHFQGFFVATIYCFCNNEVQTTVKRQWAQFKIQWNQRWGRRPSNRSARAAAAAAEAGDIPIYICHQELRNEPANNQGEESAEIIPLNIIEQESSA

With `CC(C)C[C@H](NC(=O)[C@H](CCCCN)NC(=O)CNC(=O)[C@H](CC(C)C)NC(=O)[C@@H](NC(=O)[C@@H]1CSSC[C@H](N)C(=O)N[C@@H](CO)C(=O)N[C@@H](CC(N)=O)C(=O)N[C@@H](CC(C)C)C(=O)N[C@@H](CO)C(=O)N[C@@H]([C@@H](C)O)C(=O)N1)C(C)C)C(=O)N[C@@H](CO)C(=O)N[C@@H](CCC(N)=O)C(=O)N[C@@H](CCC(=O)O)C(=O)N[C@@H](CC(C)C)C(=O)N[C@@H](Cc1c[nH]cn1)C(=O)N[C@@H](CCCCNC(=O)COCCOCCOCCOCCOCCNC(=O)CC[C@H](NC(=O)CCCCCCCCCCCCCCCCCCC(=O)O)C(=O)O)C(=O)N[C@@H](CC(C)C)C(=O)N[C@@H](CCC(N)=O)C(=O)N[C@H](C(=O)N[C@@H](Cc1ccc(O)cc1)C(=O)N1CCC[C@H]1C(=O)N[C@@H](CCCNC(=N)N)C(=O)N[C@H](C(=O)N[C@@H](CC(N)=O)C(=O)N[C@H](C(=O)NCC(=O)N[C@@H](CO)C(=O)NCC(=O)N[C@H](C(=O)N1CCC[C@H]1C(N)=O)[C@@H](C)O)[C@@H](C)O)[C@@H](C)O)[C@@H](C)O` [Compound 5, Cys-Ser-Asn-Leu-Ser-Thr-Cys-Val-Leu-Gly-Lys-Leu-Ser-Gln-Glu-Leu-His-Lys(PEG5CH2CO-γGlu-eicosanedioic acid)-Leu-Gln-Thr-Tyr-Pro-Arg-Thr-Asn-Thr-Gly-Ser-Gly-Thr-Pro-NH2] the half-life (in vivo) was 53.6 h and the “Relative Activity%” value [1] was 339.3%.
